Source: ChEMBL document CHEMBL1687830, “Evaluation of ceftazidime and NXL104 in two murine models of infection due to KPC-producing Klebsiella pneumoniae” (2011)
In brackets after ≈: the same amount, converted by molar mass.

What was measured:
Type in all cases: functional
Klebsiella pneumoniae [1] = assay: (§1) Antimicrobial activity against carbapenemases KPC-producing Klebsiella pneumoniae VA-406 infected in CD-1 mouse thigh infection model assessed as change in log10 CFU reduction per thigh treated 1.5 hr post infection at 2048 mg/kg, sc after 24 hrs by acute lethal septicemia analysis (reference value: 8.67 log10CFU/thigh); settings: route subcutaneous
Klebsiella pneumoniae [2] = assay: Antimicrobial activity against carbapenemases KPC-producing Klebsiella pneumoniae VA-361 infected in sc dosed CD-1 mouse in presence of 4 ug/ml NXL104 beta-lactamase inhibitor
Klebsiella pneumoniae [3] = assay: Antimicrobial activity against carbapenemases KPC-producing Klebsiella pneumoniae VA-406 infected in sc dosed CD-1 mouse in presence of 2 ug/ml NXL104 beta-lactamase inhibitor
Klebsiella pneumoniae [4] = assay: Antimicrobial activity against carbapenemases KPC-producing Klebsiella pneumoniae VA-406 infected in sc dosed CD-1 mouse
Klebsiella pneumoniae [5] = assay: Antimicrobial activity against carbapenemases KPC-producing Klebsiella pneumoniae VA-361 infected in sc dosed CD-1 mouse in presence of 2 ug/ml NXL104 beta-lactamase inhibitor
Klebsiella pneumoniae [6] = assay: Antimicrobial activity against carbapenemases KPC-producing Klebsiella pneumoniae VA-406 infected in sc dosed CD-1 mouse in presence of 4 ug/ml NXL104 beta-lactamase inhibitor
Klebsiella pneumoniae [7] = assay: Antimicrobial activity against carbapenemases KPC-producing Klebsiella pneumoniae VA-361 infected in sc dosed CD-1 mouse in presence of 1 ug/ml NXL104 beta-lactamase inhibitor
Klebsiella pneumoniae [8] = assay: as §1, with “VA-361” for “VA-406”, “8.93” for “8.67”; settings: route subcutaneous
Klebsiella pneumoniae [9] = assay: Antimicrobial activity against carbapenemases KPC-producing Klebsiella pneumoniae VA-406 infected in sc dosed CD-1 mouse in presence of 4 ug/ml Tazobactam beta-lactamase inhibitor
Klebsiella pneumoniae [10] = assay: as §1, with “1024” for “2048”; settings: route subcutaneous
Klebsiella pneumoniae [11] = assay: Antimicrobial activity against carbapenemases KPC-producing Klebsiella pneumoniae VA-361 infected in sc dosed CD-1 mouse in presence of 4 ug/ml Tazobactam beta-lactamase inhibitor
Klebsiella pneumoniae [12] = assay: as §1, with “VA-361” for “VA-406”, “1024” for “2048”, “8.93” for “8.67”; settings: route subcutaneous
Klebsiella pneumoniae [13] = assay: Antimicrobial activity against carbapenemases KPC-producing Klebsiella pneumoniae VA-361 infected in sc dosed CD-1 mouse
Klebsiella pneumoniae [14] = assay: as §1, with “VA-361” for “VA-406”, “>=1024:256” for “2048”, “sc compound to NXL104 beta-lactamase inhibitor ratio” for “sc”, “8.93” for “8.67”
Klebsiella pneumoniae [15] = assay: as §1, with “>=8:2” for “2048”, “sc compound to NXL104 beta-lactamase inhibitor ratio” for “sc”
Klebsiella pneumoniae [16] = assay: Antimicrobial activity against carbapenemases KPC-producing Klebsiella pneumoniae VA-406 infected in sc dosed CD-1 mouse in presence of 1 ug/ml NXL104 beta-lactamase inhibitor
Klebsiella pneumoniae [17] = assay: as §1, with “VA-361” for “VA-406”, “>=256:64” for “2048”, “sc compound to NXL104 beta-lactamase inhibitor ratio” for “sc”, “8.93” for “8.67”
Klebsiella pneumoniae [18] = assay: as §1, with “VA-361” for “VA-406”, “>=32:8” for “2048”, “sc compound to NXL104 beta-lactamase inhibitor ratio” for “sc”, “8.93” for “8.67”
Klebsiella pneumoniae [19] = assay: Antimicrobial activity against Klebsiella pneumoniae ATCC 13883 infected in sc dosed CD-1 mouse septicemia infection model at 8:1 compound to NXL104 beta-lactamase inhibitor ratio by acute lethal septicemia analysis; settings: ATCC 13883, sc
Klebsiella pneumoniae [20] = assay: as §1, with “>=64:16” for “2048”, “sc compound to NXL104 beta-lactamase inhibitor ratio” for “sc”, “analysis” for “analysis (reference value: 8.67 log10CFU/thigh)”
Klebsiella pneumoniae [21] = assay: Antimicrobial activity against carbapenemases KPC-producing Klebsiella pneumoniae VA-361 infected in sc dosed CD-1 mouse septicemia infection model at 2:1 compound to NXL104 beta-lactamase inhibitor ratio by acute lethal septicemia analysis; settings: VA-361, sc
Klebsiella pneumoniae [22] = assay: Antimicrobial activity against carbapenemases KPC-producing Klebsiella pneumoniae VA-361 infected in sc dosed CD-1 mouse septicemia infection model at 8:1 compound to NXL104 beta-lactamase inhibitor ratio by acute lethal septicemia analysis; settings: VA-361, sc
Klebsiella pneumoniae [23] = assay: Antimicrobial activity against carbapenemases KPC-producing Klebsiella pneumoniae VA-361 infected in sc dosed CD-1 mouse septicemia infection model at 4:1 compound to NXL104 beta-lactamase inhibitor ratio by acute lethal septicemia analysis; settings: VA-361, sc
Klebsiella pneumoniae [24] = assay: as §1, with “VA-361” for “VA-406”, “>=64:16” for “2048”, “sc compound to NXL104 beta-lactamase inhibitor ratio” for “sc”, “8.93” for “8.67”
Klebsiella pneumoniae [25] = assay: as §1, with “>=32:8” for “2048”, “sc compound to NXL104 beta-lactamase inhibitor ratio” for “sc”
Klebsiella pneumoniae [26] = assay: Antimicrobial activity against carbapenemases KPC-producing Klebsiella pneumoniae VA-406 infected in sc dosed CD-1 mouse septicemia infection model by acute lethal septicemia analysis; settings: VA-406, sc
Klebsiella pneumoniae [27] = assay: as §1, with “VA-361” for “VA-406”, “>=128:32” for “2048”, “sc compound to NXL104 beta-lactamase inhibitor ratio” for “sc”, “8.93” for “8.67”
Klebsiella pneumoniae [28] = assay: Antimicrobial activity against carbapenemases KPC-producing Klebsiella pneumoniae VA-406 infected in sc dosed CD-1 mouse septicemia infection model at 8:1 compound to NXL104 beta-lactamase inhibitor ratio by acute lethal septicemia analysis; settings: VA-406, sc
Klebsiella pneumoniae [29] = assay: Antimicrobial activity against carbapenemases KPC-producing Klebsiella pneumoniae VA-361 infected in sc dosed CD-1 mouse septicemia infection model at 16:1 compound to NXL104 beta-lactamase inhibitor ratio by acute lethal septicemia analysis; settings: VA-361, sc
Klebsiella pneumoniae [30] = assay: as §1, with “>=256:64” for “2048”, “sc compound to NXL104 beta-lactamase inhibitor ratio” for “sc”
Klebsiella pneumoniae [31] = assay: Antimicrobial activity against Klebsiella pneumoniae ATCC 13883 infected in sc dosed CD-1 mouse septicemia infection model by acute lethal septicemia analysis; settings: ATCC 13883, sc
Klebsiella pneumoniae [32] = assay: Antimicrobial activity against carbapenemases KPC-producing Klebsiella pneumoniae VA-406 infected in sc dosed CD-1 mouse septicemia infection model at 4:1 compound to NXL104 beta-lactamase inhibitor ratio by acute lethal septicemia analysis; settings: VA-406, sc
Klebsiella pneumoniae [33] = assay: as §1, with “>=128:32” for “2048”, “sc compound to NXL104 beta-lactamase inhibitor ratio” for “sc”
Klebsiella pneumoniae [34] = assay: Antimicrobial activity against Klebsiella pneumoniae ATCC 13883 infected in sc dosed CD-1 mouse septicemia infection model at 2:1 compound to NXL104 beta-lactamase inhibitor ratio by acute lethal septicemia analysis; settings: ATCC 13883, sc
Klebsiella pneumoniae [35] = assay: as §1, with “>=16:4” for “2048”, “sc compound to NXL104 beta-lactamase inhibitor ratio” for “sc”
Klebsiella pneumoniae [36] = assay: Antimicrobial activity against carbapenemases KPC-producing Klebsiella pneumoniae VA-406 infected in sc dosed CD-1 mouse septicemia infection model at 16:1 compound to NXL104 beta-lactamase inhibitor ratio by acute lethal septicemia analysis; settings: VA-406, sc
Klebsiella pneumoniae [37] = assay: Antimicrobial activity against carbapenemases KPC-producing Klebsiella pneumoniae VA-361 infected in sc dosed CD-1 mouse septicemia infection model by acute lethal septicemia analysis; settings: VA-361, sc
Klebsiella pneumoniae [38] = assay: Antimicrobial activity against carbapenemases KPC-producing Klebsiella pneumoniae VA-361 infected in sc dosed CD-1 mouse in presence of 4 ug/ml cavulanate beta-lactamase inhibitor
Klebsiella pneumoniae [39] = assay: as §1, with “>=512:128” for “2048”, “sc compound to NXL104 beta-lactamase inhibitor ratio” for “sc”
Klebsiella pneumoniae [40] = assay: Antimicrobial activity against Klebsiella pneumoniae ATCC 13883 infected in sc dosed CD-1 mouse septicemia infection model at 4:1 compound to NXL104 beta-lactamase inhibitor ratio by acute lethal septicemia analysis; settings: ATCC 13883, sc
Klebsiella pneumoniae [41] = assay: Antimicrobial activity against carbapenemases KPC-producing Klebsiella pneumoniae VA-406 infected in sc dosed CD-1 mouse in presence of 4 ug/ml cavulanate beta-lactamase inhibitor
Klebsiella pneumoniae [42] = assay: as §1, with “VA-361” for “VA-406”, “>=512:128” for “2048”, “sc compound to NXL104 beta-lactamase inhibitor ratio” for “sc”, “8.93” for “8.67”
Klebsiella pneumoniae [43] = assay: Antimicrobial activity against carbapenemases KPC-producing Klebsiella pneumoniae VA-406 infected in sc dosed CD-1 mouse septicemia infection model at 2:1 compound to NXL104 beta-lactamase inhibitor ratio by acute lethal septicemia analysis; settings: VA-406, sc
Klebsiella pneumoniae [44] = assay: as §1, with “>=1024:256” for “2048”, “sc compound to NXL104 beta-lactamase inhibitor ratio” for “sc”

## CCN1CCN(C(=O)N[C@@H](C(=O)N[C@@H]2C(=O)N3[C@@H]2SC(C)(C)[C@@H]3C(=O)O)c2ccccc2)C(=O)C1=O [PIPERACILLIN]
Klebsiella pneumoniae [1]
  log10cfu: 0.03
Klebsiella pneumoniae [2]
  MIC: ≤ 0.06 µg/mL
Klebsiella pneumoniae [3]
  MIC: 8 µg/mL
Klebsiella pneumoniae [4]
  MIC: ≥ 512 µg/mL
Klebsiella pneumoniae [5]
  MIC: 8 µg/mL
Klebsiella pneumoniae [6]
  MIC: 0.5 µg/mL
Klebsiella pneumoniae [7]
  MIC: 32 µg/mL
Klebsiella pneumoniae [8]
  log10cfu: -0.34
Klebsiella pneumoniae [9]
  MIC: ≥ 512 µg/mL
Klebsiella pneumoniae [10]
  log10cfu: 0.25
Klebsiella pneumoniae [11]
  MIC: ≥ 512 µg/mL
Klebsiella pneumoniae [12]
  log10cfu: -0.32
Klebsiella pneumoniae [13]
  MIC: ≥ 512 µg/mL
Klebsiella pneumoniae [14]
  log10cfu: -1.76
Klebsiella pneumoniae [15]
  log10cfu: 2.93
Klebsiella pneumoniae [16]
  MIC: 16 µg/mL

## CC(C)(O/N=C(\C(=O)N[C@@H]1C(=O)N2C(C(=O)[O-])=C(C[n+]3ccccc3)CS[C@H]12)c1csc(N)n1)C(=O)O [CEFTAZIDIME]
Klebsiella pneumoniae [17]
  log10cfu: -0.85
Klebsiella pneumoniae [2]
  MIC: 0.25 µg/mL
Klebsiella pneumoniae [18]
  log10cfu: 2.32
Klebsiella pneumoniae [19]
  ED50: 0.62 mg/kg
Klebsiella pneumoniae [20]
  log10cfu: 2.06
Klebsiella pneumoniae [21]
  ED50: 8.1 mg/kg
Klebsiella pneumoniae [22]
  ED50: 16.9 mg/kg
Klebsiella pneumoniae [3]
  MIC: 2 µg/mL
Klebsiella pneumoniae [23]
  ED50: 15.1 mg/kg
Klebsiella pneumoniae [4]
  MIC: ≥ 512 µg/mL
Klebsiella pneumoniae [5]
  MIC: 4 µg/mL
Klebsiella pneumoniae [24]
  log10cfu: 2.19
Klebsiella pneumoniae [25]
  log10cfu: 2.33
Klebsiella pneumoniae [26]
  ED50: 709 mg/kg
Klebsiella pneumoniae [27]
  log10cfu: 1.88
Klebsiella pneumoniae [6]
  MIC: ≤ 0.06 µg/mL
Klebsiella pneumoniae [7]
  MIC: 8 µg/mL
Klebsiella pneumoniae [28]
  ED50: 7.2 mg/kg
Klebsiella pneumoniae [29]
  ED50: 29.5 mg/kg
Klebsiella pneumoniae [30]
  log10cfu: -1.02
Klebsiella pneumoniae [31]
  ED50: 1.9 mg/kg
Klebsiella pneumoniae [32]
  ED50: 3.8 mg/kg
Klebsiella pneumoniae [9]
  MIC: 256 µg/mL
Klebsiella pneumoniae [33]
  log10cfu: -0.46
Klebsiella pneumoniae [34]
  ED50: 1 mg/kg
Klebsiella pneumoniae [11]
  MIC: 128 µg/mL
Klebsiella pneumoniae [35]
  log10cfu: 2.69
Klebsiella pneumoniae [36]
  ED50: 12.1 mg/kg
Klebsiella pneumoniae [37]
  ED50: 1580 mg/kg
Klebsiella pneumoniae [38]
  MIC: 128 µg/mL
Klebsiella pneumoniae [13]
  MIC: 256 µg/mL (≈ 468 µM)
Klebsiella pneumoniae [39]
  log10cfu: -1.03
Klebsiella pneumoniae [40]
  ED50: 1.1 mg/kg
Klebsiella pneumoniae [41]
  MIC: 256 µg/mL
Klebsiella pneumoniae [42]
  log10cfu: -1.47
Klebsiella pneumoniae [43]
  ED50: 3.5 mg/kg
Klebsiella pneumoniae [44]
  log10cfu: -1.59
Klebsiella pneumoniae [16]
  MIC: 8 µg/mL

## C[C@@H](O)[C@H]1C(=O)N2C(C(=O)O)=C(SCCNC=N)C[C@H]12 [IMIPENEM ANHYDROUS]
Klebsiella pneumoniae [4]
  MIC: 256 µg/mL (≈ 855 µM)
Klebsiella pneumoniae [9]
  MIC: 256 µg/mL
Klebsiella pneumoniae [11]
  MIC: 4 µg/mL
Klebsiella pneumoniae [38]
  MIC: 2 µg/mL
Klebsiella pneumoniae [13]
  MIC: 4 µg/mL (≈ 13.4 µM)
Klebsiella pneumoniae [41]
  MIC: 128 µg/mL
